pIC50: −log10 of the molar value.
Molecular target: T1, Seed linoleate 13S-lipoxygenase-1 (Glycine max, UniProt P08170)
T1 sequence (P08170 whole entry): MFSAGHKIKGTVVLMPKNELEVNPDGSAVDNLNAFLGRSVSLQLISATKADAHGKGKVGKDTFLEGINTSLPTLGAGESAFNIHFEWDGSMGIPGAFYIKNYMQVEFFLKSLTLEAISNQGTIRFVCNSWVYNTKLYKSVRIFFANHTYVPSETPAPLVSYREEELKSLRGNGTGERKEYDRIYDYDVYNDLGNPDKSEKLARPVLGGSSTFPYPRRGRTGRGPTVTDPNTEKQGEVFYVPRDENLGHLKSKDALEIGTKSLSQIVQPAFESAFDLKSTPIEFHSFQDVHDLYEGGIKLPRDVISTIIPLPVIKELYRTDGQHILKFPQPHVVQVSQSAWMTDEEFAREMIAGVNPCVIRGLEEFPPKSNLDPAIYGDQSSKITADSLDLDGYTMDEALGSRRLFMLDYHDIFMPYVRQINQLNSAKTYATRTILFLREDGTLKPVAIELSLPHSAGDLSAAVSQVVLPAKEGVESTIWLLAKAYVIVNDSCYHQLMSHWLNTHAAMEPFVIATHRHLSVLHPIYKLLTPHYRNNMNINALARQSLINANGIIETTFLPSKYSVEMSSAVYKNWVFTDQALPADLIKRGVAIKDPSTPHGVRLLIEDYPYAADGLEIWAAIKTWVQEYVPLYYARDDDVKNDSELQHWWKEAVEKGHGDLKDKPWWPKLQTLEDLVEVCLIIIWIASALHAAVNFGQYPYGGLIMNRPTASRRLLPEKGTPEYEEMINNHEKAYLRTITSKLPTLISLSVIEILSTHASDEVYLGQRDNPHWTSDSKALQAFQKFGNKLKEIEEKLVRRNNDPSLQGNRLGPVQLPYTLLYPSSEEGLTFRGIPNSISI
Assay: Inhibition Assay
Conditions: pH 8; 25 °C
Method: In vitro liposygenase inhibition assay activity was measured by modifying the spectrophotometric method developed by Tappel. The compound was prepared in methanol at various concentrations ([…]). The inhibition by lipoxygenase activity by 50% (IC50) was determined by monitoring the effect of increasing concentrations of these compounds in the assays on the degree of inhibition.

| SMILES | pIC50 |
| --- | --- |
| COc1ccc(C(C2C(=O)CC(C)(C)CC2=O)C2C(=O)CC(C)(C)CC2=O)cc1 [Tetraketone, 8] | 4.67 |
| CC1(C)CC(=O)C(C(c2ccccc2Cl)C2C(=O)CC(C)(C)CC2=O)C(=O)C1 [Tetraketone, 12] | 4.55 |
| CC1(C)CC(=O)C(C(c2ccccc2[N+](=O)[O-])C2C(=O)CC(C)(C)CC2=O)C(=O)C1 [Tetraketone, 16] | 3.72 |
| CN(C)c1ccc(C(C2C(=O)CC(C)(C)CC2=O)C2C(=O)CC(C)(C)CC2=O)cc1 [Tetraketone, 11] | 4.76 |
| CC1(C)CC(=O)C(C(c2ccc(O)c(Br)c2)C2C(=O)CC(C)(C)CC2=O)C(=O)C1 [Tetraketone, 15] | 4.57 |
| CC1(C)CC(=O)C(C(c2cccc(Br)c2)C2C(=O)CC(C)(C)CC2=O)C(=O)C1 [Tetraketone, 14] | 4.28 |
| Cc1ccc(C(C2C(=O)CC(C)(C)CC2=O)C2C(=O)CC(C)(C)CC2=O)o1 [Tetraketone, 22] | 4.90 |
| COc1ccc(C(C2C(=O)CC(C)(C)CC2=O)C2C(=O)CC(C)(C)CC2=O)c(OC)c1 [Tetraketone, 9] | 4.48 |
| CC1(C)CC(=O)C(C(c2ccc(/C(Br)=C/c3ccccc3)cc2)C2C(=O)CC(C)(C)CC2=O)C(=O)C1 [Tetraketone, 20] | 4.45 |
| CC1(C)CC(=O)C(C(c2ccc(O)cc2)C2C(=O)CC(C)(C)CC2=O)C(=O)C1 [Tetraketone, 6] | 4.58 |
| CC1(C)CC(=O)C(C(c2ccc(/C=C/c3ccccc3)cc2)C2C(=O)CC(C)(C)CC2=O)C(=O)C1 [Tetraketone, 19] | 5.11 |
| CC1(C)CC(=O)C(C(c2ccco2)C2C(=O)CC(C)(C)CC2=O)C(=O)C1 [Tetraketone, 21] | 4.29 |
| CC1(C)CC(=O)C(C(c2ccccc2)C2C(=O)CC(C)(C)CC2=O)C(=O)C1 [Tetraketone, 2] | 4.48 |
| CC1(C)CC(=O)C(C(c2ccccc2O)C2C(=O)CC(C)(C)CC2=O)C(=O)C1 [Tetraketone, 4] | 3.70 |
| COc1ccccc1C(C1C(=O)CC(C)(C)CC1=O)C1C(=O)CC(C)(C)CC1=O [Tetraketone, 7] | 3.71 |
| CCOc1ccc(C(C2C(=O)CC(C)(C)CC2=O)C2C(=O)CC(C)(C)CC2=O)cc1 [Tetraketone, 10] | 4.51 |
| Cc1ccc(C(C2C(=O)CC(C)(C)CC2=O)C2C(=O)CC(C)(C)CC2=O)cc1 [Tetraketone, 3] | 4.79 |

Reference: BindingDB's records for doi:10.1080/14756360701408754 (Pharmaceutical Research Centre, 2008)
